Three compounds from ChEMBL document CHEMBL5050855, “Mettl16 inhibitors and uses thereof” (2021) can be followed below.

Activity calls are given as the source filed them. The rule behind the calls is not given here.

The nature of test [1]: Antiproliferative activity against human MA9.3ITD cells after 72 hrs by MTT assay. The test is classed as functional, cell-based. For orientation: Formazan colour is commonly taken as a measure of viable cells.
Test [2] relates to U-937. Briefly: Antiproliferative activity against human U-937 cells after 72 hrs by MTT assay. Type of test: functional, cell-based. The following applies: U-937, 72 h.
Test [3] can be described thus: Antiproliferative activity against human MA9.3RAS cells after 72 hrs by MTT assay. Type of test: functional, cell-based.
Test [4] concerns NOMO-1. Put plainly: Antiproliferative activity against human NOMO-1 cells after 72 hrs by MTT assay. The test is classed as functional, cell-based. As to conditions: NOMO-1, 72 h.
For test [5], the system named is MONO-MAC-6. Briefly: Antiproliferative activity against human MONO-MAC-6 cells after 72 hrs by MTT assay. The test is classed as functional, cell-based. As to conditions: MONO-MAC-6, 72 h.
The test system of test [6] is HeLa. Put plainly: Antiproliferative activity against human HeLa cells after 72 hrs by MTT assay. The test is classed as functional, cell-based.
Test [7] has as its system DG-75. Put plainly: Antiproliferative activity against human DG-75 cells after 72 hrs by MTT assay. Type of test: functional, cell-based. As to conditions: DG-75, 72 h.
The subject of test [8] is RS4-11. Put plainly: Antiproliferative activity against human RS4-11 cells after 72 hrs by MTT assay. Type of test: functional, cell-based. As to conditions: RS4-11, 72 h.
Test [9] concerns COLO357. Briefly: Antiproliferative activity against human COLO357 cells after 72 hrs by MTT assay. Type of test: functional, cell-based. As to conditions: COLO357, 72 h.
In test [10] the test system is Kasumi 1. Briefly: Inhibition of METTL16 in human Kasumi 1 cells at 10 to 20 nM assessed as increase in global m6A levels measured after 48 hrs. The test is classed as cell-based. As to conditions: dose 10-20 nM.
The test system of test [11] is T98G. Put plainly: Antiproliferative activity against human T98G cells after 72 hrs by MTT assay. The test is classed as functional, cell-based.
The subject of test [12] is LN-229. Put plainly: Antiproliferative activity against human LN-229 cells after 72 hrs by MTT assay. The test is classed as functional, cell-based. The following applies: LN-229, 72 h.
In test [13] the test system is SUP-B15. Put plainly: Antiproliferative activity against human SUP-B15 cells after 72 hrs by MTT assay. The test is classed as functional, cell-based. The following applies: SUP-B15, 72 h.
Test [14] has as its system HEL. Briefly: Antiproliferative activity against human HEL cells after 72 hrs by MTT assay. Type of test: functional, cell-based.
Test [15] has as its system CA46. Briefly: Antiproliferative activity against human CA46 cells after 72 hrs by MTT assay. The test is classed as functional, cell-based. The following applies: CA46, 72 h.
The test system of test [16] is A 172. Put plainly: Antiproliferative activity against human A-172 cells after 72 hrs by MTT assay. Type of test: functional, cell-based. The following applies: A 172, 72 h.
Test [17] relates to U-937. Briefly: Binding affinity towards METTL16 in human U-937 cells at 0.1 to 500 uM and measured by cellular thermal shift assay (CETSA). Type of test: cell-based. The following applies: dose 0.1-500 µM.
Test [18] relates to HL-60. Briefly: Antiproliferative activity against human HL-60 cells after 72 hrs by MTT assay. Type of test: functional, cell-based. The following applies: HL-60, 72 h.
Test [19] has as its system Kasumi 1. Briefly: Antiproliferative activity against human Kasumi 1 cells after 72 hrs by MTT assay. Type of test: functional, cell-based. As to conditions: Kasumi 1, 72 h.
Test [20] relates to MA9.3RAS. Briefly: Inhibition of METTL16 in human MA9.3RAS cells at 10 to 20 nM assessed as increase in global m6A levels measured after 48 hrs. Type of test: cell-based. As to conditions: dose 10-20 nM.
In test [21] the test system is U-937. Put plainly: Inhibition of METTL16 in human U-937 cells at 10 to 20 nM assessed as increase in global m6A levels measured after 48 hrs. The test is classed as cell-based. The following applies: dose 10-20 nM.
The test system of test [22] is U-937. Briefly: Binding affinity towards METTL16 in human U-937 cells at 0.1 to 500 uM and measured by drug affinity responsive target stability (DARTS) assay. Type of test: cell-based. As to conditions: dose 0.1-500 µM.
Test [23] deals with U-87 MG. Briefly: Antiproliferative activity against human U-87 MG cells after 72 hrs by MTT assay. The test is classed as functional, cell-based, U-87MG ATCC.

`Nc1ccc(CO)c(Cn2ccc3c4c(N)nc(N)nc4ccc32)c1`: the concentration for half-maximal inhibition (IC50) is 0.054 µM in test [1], 0.036 µM in test [2], 0.07 µM in test [3] and 0.055 µM in test [4].
As for `Nc1ccc(Cn2ccc3c4c(N)nc(N)nc4ccc32)c(CO)c1`, the half-maximal inhibitory concentration (IC50) in test [1] is 0.047 µM; in test [2], 0.023 µM; in test [3], 0.045 µM.
For the compound `Nc1ccc(Cn2ccc3c4c(N)nc(N)nc4ccc32)cc1`, the half-inhibitory concentration (IC50) was 0.028 µM in [5]; 0.064 µM in [6]; 0.044 µM in [7]; 0.037 µM in test [8]; 1.03 µM in [9]; 10.8 µM in test [11]. Also, the concentration for half-maximal inhibition (IC50) in test [12] was determined as 0.558 µM; in test [13], 0.013 µM; in [1] it was 0.0157 µM; in [14], 0.0154 µM; in [2], 0.00963 µM; in [3], 0.0161 µM. Further, the IC50 came to 0.109 µM in test [15]; 0.682 µM in [16]; 0.0326 µM in test [18]; 0.013 µM in [19]; 20.9 µM in test [23]. In addition, the inhibition entry in [10], in test [20] and in test [21] was “Active” in each case. For the same compound, the result in test [17] and in [22] was Active.

Broadly, the IC50 is the concentration needed to halve the response being measured. High values mean weaker potency in that assay, low ones greater potency in that assay.
